The values below come from patent US20220119399A1, “COMPOUNDS AND COMPOSITIONS THAT CAUSE MYCN AND/OR CMYC DEGRADATION AND METHODS OF USE THEREOF” (THE TRUSTEES OF COLUMBIA UNIVERSITY IN THE CITY OF NEW YORK, priority 2018, published 2022).

Entries after “also recorded” stand apart in the source; their conditions may differ. A value given as a limit tells only on which side of the number the result lay.

Series [1] concerns the target T1, CK2a2 (Homo sapiens, UniProt P19784).
T1 construct: purchased Reaction Biology Corporation (Malvern, Pa.)
Briefly: Cell-free biochemical CK2a2 kinase assay. The protocol: Cell-free biochemical kinase assays were performed at Reaction Biology Corporation (Malvern, Pa.). In brief, kinase substrates were diluted into reaction buffer containing 20 mM Hepes (pH 7.5), 10 mM MgCl2, 1 mM EGTA, 0.02% Brij35, 0.02 mg/ml BSA, 0.1 mM Na3VO4, 2 mM DTT, 1% DMSO. Purified protein (CK2a1, CK2a2, or mTOR) was added to the substrate solution and gently mixed. Test compounds were diluted from 10 mM DMSO stock solutions into the reaction buffer using an Echo550 acoustic dispenser, followed by incubation at RT for 20 min. 33P-ATP (10 μCi/μL) was added to reaction mixture, following incubation for 2 h at RT. Reactions were then spotted onto P81 ion exchange paper and kinase activity was detected by filter binding method.

The subject of series [2] is cancer cell lines and non-transformed cells. As to conditions: Darji et al. 2013; Son et al. 2007; cited from earlier work.
Series [3] deals with MYCN transcript. Briefly: RT-qPCR of MYCN transcript in SK-N-Be2 cells. In kind it is cell-based, human. As to conditions: 15 μM, sampled 0, 3, 6, 9, 24 hrs. The protocol:
(§1) Reverse transcription quantitative polymerase chain reaction (RT-qPCR) was used to quantify transcript abundance of genes of interest. Total RNA was isolated from cells using the Qiaquick RNeasy isolation kit following manufacturer's instruction (QIAGEN). RNA quality and abundance was measured using a nanodrop spectrophotometer. A total of 2 μg RNA was used as a template for reverse transcription reactions. cDNA synthesis was performed using TaqMan reverse transcriptase following the manufacturer's instructions, using both oligod(T) and random hexamers as primers for RT reactions. RNAse treatment of cDNA removed any residual RNA in cDNA samples. cDNA samples were diluted 10-fold into nuclease-free dH2O, and used as the template for quantitative PCR reactions were performed in a Viia7 […] thermocycler using SYBR green and gene-specific primers (Table 1). qPCR reactions were performed using the Viia7 Real-Time PCR system (Applied Biosystems), and relative transcript abundance evaluated using the deltaCT method, using the GAPDH housekeeping gene as normalization control.
(Real-time PCR tracks product formation cycle by cycle.)

Series [4] concerns CCL5 transcript. Briefly: qPCR of CCL5 transcript in A549 cells. In kind it is cell-based. The conditions noted are these: 48 hr. The method, then: as §1
In lung cancer, cMyc overexpression suppresses CCL5, an antigen that enables the immune system to detect cancer cells (Topper et al. 2017). By suppressing CCL5, cMyc enables tumors to evade immune surveillance (Topper et al. 2017). […]

The test system of series [5] is MycN^AMP regulatory module (Master Regulators, TCM). Kind of series: PLATE-Seq with VIPER analysis: reversion of the MycN^AMP master regulator module. In kind it is cell-based, human. The conditions noted are these: SK-N-Be2 cells, IC20, 24 hrs. From the text:
Reads were mapped against the human reference genome version Grch38 using the STAR aligner, and used the variance stabilizing transformation from the DESeq2 package for R to normalize each plate. Next, we corrected for batch effect due to having compounds replicates on separate plates. We used the function combat from the sva package for R to compute the batch-corrected normalized gene expression, and fitted a linear model for each compound against the set of DMSO controls on each plate (6 wells per plate per DMSO-treated cells). We used the limma package for R to fit the linear model and to compute p-values and moderated t-statistics for each gene. For each compound, we used a vector of these statistics to generate a gene expression profile of z-scores representing the compound effect as differential between post- and pre-treatment.
Each compound gene expression profile was analyzed using the VIPER algorithm (Alvarez et al. 2016) with TARGET and NRC NBL interactomes, reverse-engineered as described in (Rajbhandari et al. 2018), resulting in two protein activity profiles for each compound that were integrated using Stouffer's z-score method.

Series [6] can be described thus: Solubility. The class given is physicochemical.
Series [7] deals with MYC targets gene set. Briefly: GSEA of Cancer Hallmarks gene sets from PLATE-Seq profiles. In kind it is cell-based, human. The conditions noted are these: SK-N-Be2 cells, 3.3 μM and 10 μM, 6 h and 24 h. From the text:
We next performed gene set analysis using PLATE-Seq expression profiling by binning transcripts according to the Cancer Hallmarks gene sets found at the molecular signatures database. Curated by the Broad Institute, these fifty hallmark pathway sets represent well defined cancer processes or states associated with cancer malignancies. […] Given that isopomiferin disrupted the MycN^AMP regulatory module, it was expected that this target would be suppressed by isopomiferin. We sought to understand how the compound is affecting cells by assessing whether any other pathways are affected by the compound. […] E2F […] regulators act in a feedback loop with MycN and also regulate cell cycle progression (Strieder and Lutz 2003; Li et al. 2014), so this is an interesting finding that will be further investigated. MycN enables cancer cells to evade the immune system by suppressing antigens that can act as immune attractants necessary for detection and destruction of cancer cells (Brandetti et al. 2017; Topper et al. 2017). It is possible that enrichment of the “Inflammatory Response” gene set is a result of desuppression of these targets as a result of MycN inhibition.
We sought to investigate biological pathways affected by isopomiferin by performing pathway enrichment analysis on a set of 50 hallmarks of cancer. […]

T1 sequence (P19784 whole entry): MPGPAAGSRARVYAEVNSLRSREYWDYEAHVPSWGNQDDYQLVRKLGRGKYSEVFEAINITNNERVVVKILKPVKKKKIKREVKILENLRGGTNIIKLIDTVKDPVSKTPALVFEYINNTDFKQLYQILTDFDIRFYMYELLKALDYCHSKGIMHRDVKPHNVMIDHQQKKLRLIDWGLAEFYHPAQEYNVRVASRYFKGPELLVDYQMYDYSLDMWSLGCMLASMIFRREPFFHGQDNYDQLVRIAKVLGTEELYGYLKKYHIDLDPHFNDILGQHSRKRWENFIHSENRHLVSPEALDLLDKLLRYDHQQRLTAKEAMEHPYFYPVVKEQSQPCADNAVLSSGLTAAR

Take `CC(C)=CCc1c2c(c3occ(-c4ccc(O)c(O)c4)c(=O)c3c1O)C=CC(C)(C)O2` [pomiferin]: the CK2a2 kinase activity entry in series [1] is given as “inhibiting both isoforms equally in a concentration-dependent manner”. The “potency in transformed cells relative to non-transformed cells” value in series [2] was greater than 10 fold.

In the case of `CC1(C)C=Cc2c(c3c(c4c(=O)c(-c5ccc(O)c(O)c5)coc24)OC(C)(C)CC3)O1` [isopomiferin], the “MYCN transcript abundance (RT-qPCR)” value in series [3] was “transcript abundance decreased in a time-dependent manner”. The “increase of CCL5 transcript” value in series [4] was found to be 15 fold. Also, the “reversion of the MR regulatory module / TCM (VIPER of PLATE-Seq)” value in series [5] is listed as “the top compound of the 90 tested; also recorded: had the strongest effect on the TCM”. In addition, in series [6], the solubility result is reported as “not soluble in aqueous buffers”. In series [7], the “Cancer Hallmarks gene set enrichment (MYC Targets, E2F Targets, G2M Checkpoint)” value is “suppressed the MYC targets gene set; also recorded: suppressed by isopomiferin treatment in a time- and dose-dependent manner”.
